According to paper PMC6429214, “Design, Synthesis and Biological Evaluation of Isoxazole-Based CK1 Inhibitors Modified with Chiral Pyrrolidine Scaffolds” (Molecules, 2019):
Structures can show the parent of a compound that is named as a salt. Each block holds one compound with its values, some of them ahead of it.

Experiments:
[1] = target: T1, human CK1δ transcription variant 1 (Homo sapiens, UniProt P48730); test: in-vitro kinase assay CK1δ; format: biochemical; conditions: 10 µM ATP, mean ± SD, n = 3; for remaining activity at 10 µM: read-out: CK1δ Residual Activity [%] at 10 µM ± SD
T1 construct: made in house; own knowledge
Excerpt: Human CK1δ transcription variant 1 (CK1δ TV1_NM_001893.4) has been amplified from the cDNA obtained from HT1080 cell line, using CK1δ_forward-primer: 5′-GGATCCATGGAGCTGAGAGTCGGGAACAG-3′ and CK1δ_reverse primer: 5′-GGATCCTCATCGGTGCACGACAGACTGA-3′. The CK1δ DNA construct was cloned into pSC-A cloning vector (Agilent technologies, Munich, Germany) with BamHI enzyme, to generate plasmids pGEX6-P3-GST-CK1δ TV1 (FP1417). Overexpression and purification of GST-CK1δ TV1 protein has been performed as described before.
(§1) In vitro kinase assays have been performed to both screen, as well as to calculate IC50 values of the compounds for CK1δ and ε. Each reaction was carried out using 2 μCi ^32P-γ-ATP in kinase buffer containing 25 mM Tris-HCl (pH = 7.5), 10 mM MgCl2, 100 µM EDTA, and 10 µM ATP. […] Recombinant human CK1δ transcription variant 1 (expressed and purified as GST fusion protein as described earlier) and human GST-CK1ε (PV3500; Invitrogen) were used as sources of enzyme, while α-casein (C6780; Sigma-Aldrich) was used as substrate. Kinase reactions were incubated for 30 min at 30 °C and then stopped with loading dye (50 mM Tris-HCl (pH = 6.8), 5% (v/v) β-mercaptoethanol (MSH), 10% (v/v) glycerol, 2% (w/v) sodium dodecyl sulfate (SDS), 0.1% (w/v) bromphenol blue). Subsequently, reactions were separated by sodium dodecyl sulfate polyacrylamide gel electrophoresis (SDS-PAGE) and phosphorylated protein bands were visualized on dried gels by autoradiography. The phosphorylated substrate protein bands were excised, and phosphorylation was quantified by Cherenkov counting. Dose-response analyses and calculation of IC50 values were carried out using GraphPad Prism 6 statistical software (San Diego, CA, USA).

human GST-CK1ε = target: T2, human GST-CK1ε (Homo sapiens, UniProt P49674); test: in-vitro kinase assay CK1ε; format: biochemical; conditions: 10 µM ATP, mean ± SD, n = 3; for remaining activity at 10 µM: read-out: CK1ε Residual Activity [%] at 10 µM ± SD
T2 construct: purchased Invitrogen PV3500
T2 sequence (P49674 whole entry): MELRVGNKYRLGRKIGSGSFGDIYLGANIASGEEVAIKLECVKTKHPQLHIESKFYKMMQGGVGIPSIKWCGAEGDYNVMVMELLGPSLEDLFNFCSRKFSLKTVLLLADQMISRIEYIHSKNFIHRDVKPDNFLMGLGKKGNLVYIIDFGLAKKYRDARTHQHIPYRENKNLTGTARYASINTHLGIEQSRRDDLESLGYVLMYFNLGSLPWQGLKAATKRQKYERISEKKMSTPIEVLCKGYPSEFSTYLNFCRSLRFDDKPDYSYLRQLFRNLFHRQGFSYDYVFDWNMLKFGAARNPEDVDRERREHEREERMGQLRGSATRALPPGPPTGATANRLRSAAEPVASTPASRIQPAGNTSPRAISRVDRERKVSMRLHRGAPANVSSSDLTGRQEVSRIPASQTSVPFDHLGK
Protocol: as §1

[2] = MTT cell viability assay MCF-7; format: cell-based, human; conditions: human, MCF-7 cells, mean ± SD
Protocol: (§2) The human colon adenocarcinoma cell line HT-29 was grown in McCoy’s 5A medium, whereas MCF7 cells were grown in DMEM medium. All media were supplemented with 10% fetal calf serum (FCS), 100 units/mL penicillin, 100 µg/mL streptomycin and 2 mM glutamine. All cells were grown at 37 °C in a humidified 5% carbon dioxide atmosphere.
(§3) In order to analyze the effects of selected inhibitors on the cell viability of HT-29 and MCF7 cells, MTT assays were performed. 1 × 10^4 cells/well were seeded in 96-well cell culture plates. After 24 h cells were treated with increasing concentrations of the indicated inhibitor compounds, with untreated and DMSO-treated cells as control. After an incubation period of 48 h, 10 µL of MTT solution (5 mg/mL in PBS) were added and cells were incubated for 4 h. MTT-containing medium was carefully removed and 100 µL acidic isopropanol (0.04 N HCl in isopropanol) per well were added. To dissolve formazan crystals, plates were shaken for 30 min on an orbital shaker in the dark. Finally, dissolved crystals were measured spectrophotometrically at 570 nm. All experiments were performed in triplicate with four technical replicates per assay. Results were normalized considering the mean optical density value of control wells as 100%. GraphPad Prism 6 software (San Diego, CA, USA) was used to calculate EC50 values.

[3] = MTT cell viability assay HT-29; format: cell-based, human; conditions: human, HT-29 cells, mean ± SD
Protocol: as §2, §3

MCF-7 cells = test: MTT cell viability assay MCF-7; format: cell-based, human; conditions: mean ± SD
Protocol: as §2, §3

HT-29 cells = test: MTT cell viability assay HT-29; format: cell-based, human; conditions: mean ± SD
Protocol: as §2, §3

[4] = LC-MS of aqueous solutions with and without PEG; format: physicochemical; conditions: LC-MS over 7 days, not in solutions without PEG
Excerpt: Since all analytical data for the originally employed inhibitors was consistent with the given structures, we postulate that the incorporation of an additional methylene group occurred via spontaneous Pictet-Spengler cyclization during crystallization. In line with this notion, PEG, which has been used in our soaking solutions, is known to generate formaldehyde traces that have been shown in the past to affect the derivatization of both, proteins and ligands. To further corroborate this hypothesis, we examined whether simple exposure of 29d/e to formaldehyde would give rise to the same Pictet-Spengler products 31a/b (Scheme 5). Indeed, when compounds 29d/e were treated with formaldehyde at room temperature 31a/b were formed readily and the obtained spectroscopic data was consistent with the predicted Pictet-Spengler products. In addition, aqueous solutions of 29d and 29e with and without PEG were analyzed by liquid chromatography-mass spectrometry (LC-MS) over a period of 7 days.
LC-MS was performed with a Bruker Esquire ~LC ion trap mass spectrometer (Bremen, Germany) in the positive ion mode (dry gas 9 L/min, nebulizer 35 psi, drying temperature 350 °C) after chromatographic separation using an Agilent 1100 HPLC system (Waldbronn, Germany) with a RP-8 column (Agilent Eclipse XDB-C8, 150 × 4.6 mm, 5 μm) and a 0.1% acetic acid/acetonitrile gradient.

IRAK4 = conditions: cited from earlier work
p38α = tested on: p38α; design: method as in PMID 18763757; conditions: cited from earlier work
Trk = tested on: Trk; design: method as in PMID 20336234; conditions: cited from earlier work
CK1δ = tested on: CK1δ; design: method as in PMID 19591487; conditions: cited from earlier work

Structure (SMILES): COc1ccc(-c2cc(C(=O)Nc3cc(-c4c(-c5ccc(F)cc5)noc4C(C)C)ccn3)n(CC3NCC(O)C3O)c2)cc1 (centres unmarked) (as salt: trifluoroacetate) [29d]
melting point: 191 to 193 °C

Structure (SMILES): COc1ccc(-c2cc(C(=O)Nc3cc(-c4c(-c5ccc(F)cc5)noc4C(C)C)ccn3)n(CC3NCC(O)C3O)c2)cc1 (centres unmarked) (as salt: trifluoroacetate) [29e]
melting point: 188 to 191 °C

remaining activity at 10 µM ([1]; 10 µM compound): 48 ± 7%
remaining activity at 10 µM (human GST-CK1ε; 10 µM compound): 70 ± 21%
melting point: 157 to 158 °C
Structure (SMILES): COc1ccc(-c2cc(C(=O)Nc3cc(-c4c(-c5ccc(F)cc5)noc4C(C)C)ccn3)n(C)c2)cc1 [28a, N-{4-[3-(4-Fluorophenyl)-5-isopropylisoxazol-4-yl]pyridin-2-yl}-4-(4-methoxyphenyl)-1-methyl-1H-pyrrole-2-carboxamide]
viability at 48 h, 5 µM [2]: 103 ± 16%
viability at 48 h, 10 µM [2]: 88 ± 9%
viability at 48 h, 20 µM [2]: 54 ± 5%
viability at 48 h, 5 µM [3]: 111 ± 19%
viability at 48 h, 10 µM [3]: 98 ± 22%
viability at 48 h, 20 µM [3]: 78 ± 10%

remaining activity at 10 µM ([1]; 10 µM compound): 48 ± 4%
remaining activity at 10 µM (human GST-CK1ε; 10 µM compound): 47 ± 11%
Structure (SMILES): COc1ccc(-c2cc(C(=O)Nc3cc(-c4c(-c5ccc(F)cc5)noc4C(C)C)ccn3)n(C)c2)c(OC)c1 [28b, 4-(2,4-Dimethoxyphenyl)-N-{4-[3-(4-fluorophenyl)-5-isopropylisoxazol-4-yl]pyridin-2-yl}-1-methyl-1H-pyrrole-2-carboxamide]
viability at 48 h, 5 µM [2]: 89 ± 13%
viability at 48 h, 10 µM [2]: 84 ± 11%
viability at 48 h, 20 µM [2]: 79 ± 12%
viability at 48 h, 5 µM [3]: 94 ± 23%
viability at 48 h, 10 µM [3]: 59 ± 14%
viability at 48 h, 20 µM [3]: 52 ± 10%

IC50 [1]: 0.45 ± 0.07 µM
remaining activity at 10 µM ([1]; 10 µM compound): 7.7 ± 0.2%
IC50 (human GST-CK1ε): 1.5 ± 0.3 µM
remaining activity at 10 µM (human GST-CK1ε; 10 µM compound): 18 ± 1%
EC50 (MCF-7 cells; Homo sapiens, MCF7, 48 h): 39000 ± 12000 nM
EC50 (HT-29 cells; Homo sapiens, HT-29, 48 h): 24000 ± 6000 nM
Structure (SMILES): CC(C)c1onc(-c2ccc(F)cc2)c1-c1ccnc(NC(=O)c2cccn2C[C@H]2NC[C@H](O)[C@@H]2O)c1 [29c, (2R,3R,4S)-2-{[2-({4-[3-(4-Fluorophenyl)-5-isopropylisoxazol-4-yl]pyridin-2-yl}carbamoyl)-1H-pyrrol-1-yl]methyl}-3,4-dihydroxypyrrolidin-1-ium trifluoroacetate]
viability at 48 h, 5 µM [2]: 90 ± 10%
viability at 48 h, 10 µM [2]: 81 ± 5%
viability at 48 h, 5 µM [3]: 80 ± 16%
viability at 48 h, 10 µM [3]: 78 ± 11%

Structure (SMILES): COc1ccc(-c2cc(C(=O)Nc3cc(-c4c(-c5ccc(F)cc5)noc4C(C)C)ccn3)n(CC3NCC(O)C3O)c2)cc1 (centres unmarked) [29e]
IC50 [1]: 0.047 ± 0.004 µM
CK1δ Residual Activity [%] at 10 µM ± SD ([1]; 10 µM compound): 3.4 ± 0.7%
IC50 (human GST-CK1ε): 0.063 ± 0.009 µM
CK1ε Residual Activity [%] at 10 µM ± SD (human GST-CK1ε; 10 µM compound): 14 ± 3%
MCF-7 Cell Viability [%] 5 µM (MCF-7 cells; 5 µM, 48 h): 90 ± 27%
MCF-7 Cell Viability [%] 10 µM (MCF-7 cells; 10 µM, 48 h): 58 ± 18%
MCF-7 Cell Viability [%] 20 µM (MCF-7 cells; 20 µM, 48 h): 8.0 ± 3.4%
EC50 (MCF-7 cells; 48 h): 10000 ± 2000 nM
HT-29 Cell Viability [%] 5 µM (HT-29 cells; 5 µM, 48 h): 75 ± 13%
HT-29 Cell Viability [%] 10 µM (HT-29 cells; 10 µM, 48 h): 42 ± 10%
HT-29 Cell Viability [%] 20 µM (HT-29 cells; 20 µM, 48 h): 11 ± 3%
EC50 (HT-29 cells; 48 h): 8800 ± 800 nM
formation of Pictet-Spengler products in aqueous solution with PEG [4]: significant product formation

IC50 [1]: 0.037 ± 0.004 µM
remaining activity at 10 µM ([1]; 10 µM compound): 2.8 ± 0.5%
IC50 (human GST-CK1ε): 0.1 ± 0.014 µM
remaining activity at 10 µM (human GST-CK1ε; 10 µM compound): 9.7 ± 1.6%
EC50 (MCF-7 cells; Homo sapiens, MCF7, 48 h): 9600 ± 800 nM
EC50 (HT-29 cells; Homo sapiens, HT-29, 48 h): 5400 ± 400 nM
Structure (SMILES): COc1ccc(-c2cc(C(=O)Nc3cc(-c4c(-c5ccc(F)cc5)noc4C(C)C)ccn3)n(C[C@H]3NC[C@H](O)[C@@H]3O)c2)c(OC)c1 [29f]
viability at 5 µM (MCF-7 cells; Homo sapiens, MCF7, 48 h, 5 µM): 87 ± 5%
viability at 10 µM (MCF-7 cells; Homo sapiens, MCF7, 48 h, 10 µM): 33 ± 7%
viability at 20 µM (MCF-7 cells; Homo sapiens, MCF7, 48 h, 20 µM): 3.9 ± 0.2%
viability at 5 µM (HT-29 cells; Homo sapiens, HT-29, 48 h, 5 µM): 50 ± 10%
viability at 10 µM (HT-29 cells; Homo sapiens, HT-29, 48 h, 10 µM): 25 ± 5%
viability at 20 µM (HT-29 cells; Homo sapiens, HT-29, 48 h, 20 µM): 9.4 ± 3%

IC50 [1]: 0.011 ± 0.001 µM
IC50 (human GST-CK1ε): 0.056 ± 0.005 µM
EC50 (MCF-7 cells; 48 h): 1300 ± 200 nM
EC50 (MCF-7 cells; Homo sapiens, MCF7, 48 h): < 2000 nM
EC50 (HT-29 cells; 48 h): 1100 ± 100 nM
EC50 (HT-29 cells; Homo sapiens, HT-29, 48 h): < 2000 nM
Structure (SMILES): COc1ccc(-c2cc(C(=O)Nc3cc(-c4c(-c5ccc(F)cc5)noc4C(C)C)ccn3)n3c2CN2C[C@H](O)[C@H](O)[C@H]2C3)cc1 [31a, (1R,2S,10aR)-N-{4-[3-(4-Fluorophenyl)-5-isopropylisoxazol-4-yl]pyridin-2-yl}-1,2-dihydroxy-6-(4-methoxyphenyl)-2,3,10,10a-tetrahydro-1H,5H-dipyrrolo[1,2-a:1’,2’-d]pyrazine-8-carboxamide]

IC50 [1]: 0.024 ± 0.004 µM
IC50 (human GST-CK1ε): 0.196 ± 0.026 µM
EC50 (MCF-7 cells; 48 h): 1900 ± 300 nM
EC50 (MCF-7 cells; Homo sapiens, MCF7, 48 h): < 2000 nM
EC50 (HT-29 cells; 48 h): 1400 ± 200 nM
EC50 (HT-29 cells; Homo sapiens, HT-29, 48 h): < 2000 nM
Structure (SMILES): COc1ccc(-c2cc(C(=O)Nc3cc(-c4c(-c5ccc(F)cc5)noc4C(C)C)ccn3)n3c2CN2C[C@@H](O)[C@@H](O)[C@@H]2C3)cc1 [31b, (1S,2R,10aS)-N-{4-[3-(4-Fluorophenyl)-5-isopropylisoxazol-4-yl]pyridin-2-yl}-1,2-dihydroxy-6-(4-methoxyphenyl)-2,3,10,10a-tetrahydro-1H,5H-dipyrrolo[1,2-a:1’,2’-d]pyrazine-8-carboxamide]

Structure (SMILES): Cc1cc(Nc2ncc(-c3nc4ccncc4s3)c(N[C@@H]3C[C@H](CO)[C@@H](O)[C@H]3O)n2)cc(C)n1 [compound 4]
IC50 (IRAK4): 0.3 nM

Structure (SMILES): CC(C)C(C)Nc1cc(-c2[nH]c(SC[C@@H](O)CO)nc2-c2ccc(F)cc2)ccn1 (some centres unmarked) [compound 5]
IC50 (p38α): 15 nM

Structure (SMILES): C[C@]12O[C@H](C[C@]1(O)CO)n1c3ccccc3c3c4c(c5c6ccccc6n2c5c31)CNC4=O [compound 7]
IC50 (Trk): 25 nM

Structure (SMILES): COc1ccc(/C=C/C(=O)Nc2cc(-c3c(-c4ccc(F)cc4)noc3C(C)C)ccn2)c(OC)c1 [compound 8]
IC50 (CK1δ): 33 nM
